# Target: T1, PDGF-Ra (Homo sapiens, UniProt P16234)
# T1 construct: host or cells: G-292 human osteosarcoma cells
# Assay: Inhibitory activity against PDGF-Ra phosphorylation by PDGF-AA stimulation using G292
# Format: cell-based
# Conditions: > means inhibition at indicated concentration not more than 50%, < and << not less than 50%; read-out: PDGF (E) IC50
# Summary of the method: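 Human osteosarcoma G-292, 0.1% FBS o/n; cpd (DMSO) 1 h 37 °C; PDGF-AA 50 ng/ml 5 min; lyse 20 min RT; PY-20 capture 4 °C o/n; anti-PDGF-Ra + HRP-GAR; OD450.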
# T1 sequence (P16234 24-1089): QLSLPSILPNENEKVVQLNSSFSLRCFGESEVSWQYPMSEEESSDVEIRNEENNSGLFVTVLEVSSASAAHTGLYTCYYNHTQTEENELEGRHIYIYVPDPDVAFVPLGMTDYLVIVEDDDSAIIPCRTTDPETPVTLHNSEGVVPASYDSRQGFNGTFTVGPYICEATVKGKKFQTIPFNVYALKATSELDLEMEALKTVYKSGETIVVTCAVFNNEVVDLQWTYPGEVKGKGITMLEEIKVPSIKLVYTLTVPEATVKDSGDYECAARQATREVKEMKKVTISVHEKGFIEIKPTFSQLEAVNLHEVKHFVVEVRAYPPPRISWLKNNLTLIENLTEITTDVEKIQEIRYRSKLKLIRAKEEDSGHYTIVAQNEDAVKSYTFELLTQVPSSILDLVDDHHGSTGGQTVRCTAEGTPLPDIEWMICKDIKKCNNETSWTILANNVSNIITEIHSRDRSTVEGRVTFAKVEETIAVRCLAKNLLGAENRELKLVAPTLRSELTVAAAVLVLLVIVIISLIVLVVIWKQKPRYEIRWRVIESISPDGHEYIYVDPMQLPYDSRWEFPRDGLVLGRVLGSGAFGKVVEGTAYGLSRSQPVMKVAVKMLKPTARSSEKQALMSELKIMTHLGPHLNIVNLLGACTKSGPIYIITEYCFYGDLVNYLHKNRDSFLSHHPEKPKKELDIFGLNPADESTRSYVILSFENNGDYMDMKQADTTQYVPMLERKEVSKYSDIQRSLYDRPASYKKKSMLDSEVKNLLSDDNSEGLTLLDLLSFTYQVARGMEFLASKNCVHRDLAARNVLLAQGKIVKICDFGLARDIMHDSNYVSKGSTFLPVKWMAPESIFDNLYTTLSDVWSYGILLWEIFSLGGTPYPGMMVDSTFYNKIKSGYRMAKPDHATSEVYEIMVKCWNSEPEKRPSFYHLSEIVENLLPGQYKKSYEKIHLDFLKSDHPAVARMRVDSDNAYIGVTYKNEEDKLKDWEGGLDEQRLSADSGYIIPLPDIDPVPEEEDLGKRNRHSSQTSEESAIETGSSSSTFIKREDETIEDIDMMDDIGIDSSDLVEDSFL
row,Structure (SMILES),IC50 [µM]
1,"COC(=O)COc1ccc(Oc2ncnc3cc(OC)c(OC)cc23)cc1 [Example 774, Methyl 2-{4-[(6,7-dimethoxy-4-quinazolinyl)oxy]phenoxy}acetate]",> 0.1
2,"COc1cc2ncnc(Oc3ccc(OCC(=O)O)cc3)c2cc1OC [Example 775, 2-{4-[(6,7-Dimethoxy-4-quinazolinyl)oxy]phenoxy}acetic acid]",> 0.1
3,"COc1cc2nccc(Oc3ccc(OCCCOc4c(C)cccc4C)cc3)c2cc1OC [Example 799, 4-{4-[3-(2,6-Dimethylphenoxy)propoxy]phenoxy}-6,7-dimethoxyquinoline]",0.014
4,"COc1cc2nccc(Oc3ccc(NC(=S)NC(=O)N(CCCl)CCCl)cc3Cl)c2cc1OC [Example 1049, N-{3-Chloro-4-[(6,7-dimethoxy-4-quinolyl)oxy]phenyl}-[{[di(2-chloroethyl)amino]carbonyl}amino]methanethioamide]",0.044
5,"CCN(C(=S)NC(=O)CCc1ccccc1OC)c1ccc(Oc2ccnc3cc(OC)c(OC)cc23)cc1 [Example 1142, N-{4-[(6,7-Dimethoxy-4-quinolyl)oxy]phenyl}-N-ethyl-N′-[3-(2-methoxyphenyl)propanoyl]thiourea]",0.08
6,"CCN(C(=S)NC(=O)C1CC1c1ccccc1)c1ccc(Oc2ccnc3cc(OC)c(OC)cc23)cc1 (stereo not shown) [Example 1143, N-{4-[(6,7-Dimethoxy-4-quinolyl)oxy]phenyl}-N-ethyl-N′-[(2-phenylcyclopropyl)carbonyl]thiourea]",> 0.1
7,"COc1cc2ncnc(Oc3ccc(NC(=S)NC(=O)c4ccccc4C(F)(F)F)cc3)c2cc1OC [Example 1157, N-{4-[(6,7-Dimethoxy-4-quinazolinyl)oxy]phenyl}-N′-[2-(trifluoromethyl)benzoyl]thiourea]",< 0.01
8,"COc1cc2ncnc(Oc3ccc(NC(=S)NC(=O)c4cc(Cl)cc(Cl)c4)cc3)c2cc1OC [Example 1158, N-(3,5-Dichlorobenzoyl)-N′-{4-[(6,7-dimethoxy-4-quinazolinyl)oxy]phenyl}thiourea]",0.046
9,"COc1cc2ncnc(Oc3ccc(NC(=S)NC(=O)c4ccccc4F)cc3)c2cc1OC [Example 1161, N-{4-[(6,7-Dimethoxy-4-quinazolinyl)oxy]phenyl}-N′-(2-fluorobenzoyl)thiourea]",< 0.01
10,"COc1cc2ncnc(Oc3ccc(NC(=S)NC(=O)c4c(Cl)cccc4Cl)cc3)c2cc1OC [Example 1162, N-(2,6-Dichlorobenzoyl)-N′-{4-[(6,7-dimethoxy-4-quinazolinyl)oxy]phenyl}thiourea]",0.013
11,"COc1cc2ncnc(Oc3ccc(NC(=S)NC(=O)c4cccc(F)c4)cc3)c2cc1OC [Example 1164, N-{4-[(6,7-Dimethoxy-4-quinazolinyl)oxy]phenyl}-N′-(3-fluorobenzoyl)thiourea]",< 0.01
12,"COc1cc2ncnc(Oc3ccc(NC(=S)NC(=O)CCCCCl)cc3)c2cc1OC [Example 1170, N-(5-Chloropentanoyl)-N′-{4-[(6,7-dimethoxy-4-quinazolinyl)oxy]phenyl}thiourea]",< 0.01
13,"COc1cc2ncnc(Oc3ccc(NC(=S)NC(=O)Cc4cccs4)cc3)c2cc1OC [Example 1172, N-{4-[(6,7-Dimethoxy-4-quinazolinyl)oxy]phenyl}-N′-[2-(2-thienyl)acetyl]thiourea]",0.034
14,"COc1ccc(C(=O)NC(=S)Nc2ccc(Oc3ncnc4cc(OC)c(OC)cc34)cc2)c(OC)c1 [Example 1175, N-(2,4-Dimethoxybenzoyl)-N′-{4-[(6,7-dimethoxy-4-quinazolinyl)oxy]phenyl}thiourea]",0.037
15,"CCOC(=O)CCCC(=O)NC(=S)Nc1ccc(Oc2ncnc3cc(OC)c(OC)cc23)cc1 [Example 1177, Ethyl 5-[({4-[(6,7-dimethoxy-4-quinazolinyl)oxy]anilino}carbothioyl)amino]-5-oxopentanoate]",0.017
16,"CCOC(=O)CCC(=O)NC(=S)Nc1ccc(Oc2ncnc3cc(OC)c(OC)cc23)cc1 [Example 1178, Ethyl 4-[({4-[(6,7-dimethoxy-4-quinazolinyl)oxy]anilino}carbothioyl)amino]-4-oxobutanoate]",0.078
17,"COc1cc2nccc(Oc3ccc(NC(=S)NC(=O)C(C)(C)C)cc3Cl)c2cc1OC [Example 1187, N-{3-Chloro-4-[(6,7-dimethoxy-4-quinolyl)oxy]phenyl}-N′-(2,2-dimethylpropanoyl)thiourea]",0.024
18,"COc1cc2ncnc(Oc3ccc(NC(=S)NC(=O)C(C)(C)C)cc3)c2cc1OC [Example 1188, N-{4-[(6,7-Dimethoxy-4-quinazolinyl)oxy]phenyl}-N′-(2,2-dimethylpropanoyl)thiourea]",0.076

# Further lines, results first:
row,IC50 [µM],Structure (SMILES)
1,0.048,"COc1cc2nccc(Oc3ccc(NC(=S)NC(=O)c4ccc(C)cc4C)cc3Cl)c2cc1OC [Example 1016, N-{3-Chloro-4-[(6,7-dimethoxy-4-quinolyl)oxy]phenyl}-N′-(2,4-dimethylbenzoyl)thiourea]"
2,0.048,"COc1cc2nccc(Oc3ccc(NC(=S)NC(=O)c4cc(C)ccc4C)cc3Cl)c2cc1OC [Example 1017, N-{3-Chloro-4-[(6,7-dimethoxy-4-quinolyl)oxy]phenyl}-N′-(2,5-dimethylbenzoyl)thiourea]"
3,> 0.1,"COc1cc2nccc(Oc3ccc(NC(=S)NC(=O)c4ccc(C5CCCCC5)cc4)cc3)c2cc1OC [Example 1124, N-(4-Cyclohexylbenzoyl)-N′-{4-[(6,7-dimethoxy-4-quinolyl)oxy]phenyl}thiourea]"
4,> 0.1,"COc1cc2nccc(Oc3ccc(NC(=S)NC(=O)c4ccc(C5CCCCC5)cc4)cc3Cl)c2cc1OC [Example 1127, N-{3-Chloro-4-[(6,7-dimethoxy-4-quinolyl)oxy]phenyl}-N′-(4-cyclohexylbenzoyl)thiourea]"
5,> 0.1,"COc1cc2nccc(Oc3ccc(NC(=S)NC(=O)c4cc(C)cc(C)c4)cc3)c2cc1OC [Example 1129, N-{4-[(6,7-Dimethoxy-4-quinolyl)oxy]phenyl}-N′-(3 5-dimethylbenzoyl)thiourea]"
6,< 0.01,"COc1cc2nccc(Oc3ccc(NC(=S)NC(=O)c4cccnc4)cc3)c2cc1OC [Example 1152, N-{4-[(6,7-Dimethoxy-4-quinolyl)oxy]phenyl}-N′-(3-pyridylcarbonyl)thiourea]"
7,> 0.1,"COc1cc2nccc(Oc3ccc(NC(=S)NC(=O)c4cc(Cl)cc(Cl)c4)c(Cl)c3)c2cc1OC [Example 1159, N-{2-Chloro-4-[(6,7-dimethoxy-4-quinolyl)oxy]phenyl}-N′-(3,5-dichlorobenzoyl)thiourea]"
8,< 0.01,"COc1cc2nccc(Oc3ccc(NC(=S)NC(=O)c4ccccc4F)cc3F)c2cc1OC [Example 1160, N-{4-[(6,7-Dimethoxy-4-quinolyl)oxy]-3-fluorophenyl}-N′-(2-fluorobenzoyl)thiourea]"
9,> 0.1,"COc1cc2nccc(Oc3ccc(NC(=S)NC(=O)c4cccc(F)c4)c(Cl)c3)c2cc1OC [Example 1163, N-{2-Chloro-4-[(6,7-dimethoxy-4-quinolyl)oxy]phenyl}-N′-(3-fluorobenzoyl)thiourea]"
10,> 0.1,"COc1cc2nccc(Oc3ccc(NC(=S)NC(=O)c4cccc(Br)c4)c(Cl)c3)c2cc1OC [Example 1165, N-(3-Bromobenzoyl)-N′-{2-chloro-4-[(6,7-dimethoxy-4-quinolyl)oxy]phenyl}thiourea]"
11,< 0.01,"COc1cc2nccc(Oc3ccc(NC(=S)NC(=O)c4ccc(Br)cc4)cc3)c2cc1OC [Example 1166, N-(4-Bromobenzoyl)-N′-{4-[(6,7-dimethoxy-4-quinolyl)oxy]phenyl}thiourea]"
12,> 0.1,"COc1cc2nccc(Oc3ccc(NC(=S)NC(=O)c4ccc(Br)cc4)c(Cl)c3)c2cc1OC [Example 1167, N-(4-Bromobenzoyl)-N′-{2-chloro-4-[(6,7-dimethoxy-4-quinolyl)oxy]phenyl}thiourea]"
13,< 0.01,"COc1cc2ncnc(Oc3ccc(NC(=S)NC(=O)c4ccc(Br)cc4)cc3)c2cc1OC [Example 1168, N-(4-Bromobenzoyl)-N′-{4-[(6,7-dimethoxy-4-quinazolinyl)oxy]phenyl}thiourea]"
14,0.037,"COc1cc2nccc(Oc3ccc(NC(=S)NC(=O)Cc4ccc(CBr)cc4)cc3)c2cc1OC [Example 1169, N-{2-[4-(Bromomethyl)phenyl]acetyl}-N′-{4-[(6,7-dimethoxy-4-quinolyl)oxy]phenyl}thiourea]"
15,0.013,"COc1cc2nccc(Oc3ccc(NC(=S)NC(=O)Cc4cccs4)cc3)c2cc1OC [Example 1171, N-{4-[(6,7-Dimethoxy-4-quinolyl)oxy]phenyl}-N′-[2-(2-thienyl)acetyl]thiourea]"
16,> 0.1,"COc1ccc(C(=O)NC(=S)Nc2ccc(Oc3ccnc4cc(OC)c(OC)cc34)cc2Cl)cc1 [Example 1173, N-{2-Chloro-4-[(6,7-dimethoxy-4-quinolyl)oxy]phenyl}-N′-(4-methoxybenzoyl)thiourea]"
17,> 0.1,"COc1cc2nccc(Oc3ccc(NC(=S)NC(=O)c4ccc(Cl)cc4)c(Cl)c3)c2cc1OC [Example 1174, N-(4-Chlorobenzoyl)-N′-{2-chloro-4-[(6,7-dimethoxy-4-quinolyl)oxy]phenyl}thiourea]"
18,> 0.1,"COc1ccc(C(=O)NC(=S)Nc2ccc(Oc3ccnc4cc(OC)c(OC)cc34)cc2Cl)c(OC)c1 [Example 1176, N-{2-Chloro-4-[(6,7-dimethoxy-4-quinolyl)oxy]phenyl}-N′-(2,4-dimethoxybenzoyl)thiourea]"
19,0.055,"COc1cc2nccc(Oc3ccc(NC(=S)NC(=O)CCc4cccc(C)c4)cc3Cl)c2cc1OC [Example 1184, N-{3-Chloro-4-[(6,7-dimethoxy-4quinolyl)oxy]phenyl}-N′-[3-(3-methylphenyl)propanoyl]thiourea]"

# Same assay, conditions: G292; figure in parentheses in >100( ); at 100 nM; read-out: PDGF (E) inhibition (%) at 100 nM
row,inhibition at 0.1 µM [%],Structure (SMILES)
1,22,"COc1cc2nccc(Oc3ccc(NC(=S)NC(=O)c4ccc(C5CCCCC5)cc4)cc3)c2cc1OC [Example 1124, N-(4-Cyclohexylbenzoyl)-N′-{4-[(6,7-dimethoxy-4-quinolyl)oxy]phenyl}thiourea]"
2,8,"COc1cc2nccc(Oc3ccc(NC(=S)NC(=O)c4ccc(C5CCCCC5)cc4)cc3Cl)c2cc1OC [Example 1127, N-{3-Chloro-4-[(6,7-dimethoxy-4-quinolyl)oxy]phenyl}-N′-(4-cyclohexylbenzoyl)thiourea]"
3,48,"COc1cc2nccc(Oc3ccc(NC(=S)NC(=O)c4cc(C)cc(C)c4)cc3)c2cc1OC [Example 1129, N-{4-[(6,7-Dimethoxy-4-quinolyl)oxy]phenyl}-N′-(3 5-dimethylbenzoyl)thiourea]"
4,32,"CCN(C(=S)NC(=O)C1CC1c1ccccc1)c1ccc(Oc2ccnc3cc(OC)c(OC)cc23)cc1 (stereo not shown) [Example 1143, N-{4-[(6,7-Dimethoxy-4-quinolyl)oxy]phenyl}-N-ethyl-N′-[(2-phenylcyclopropyl)carbonyl]thiourea]"

# Same assay, conditions: G292; figure within parentheses in >100( ); at 100 nM; read-out: PDGF (E) inhibition (%) at 100 nM
row,inhibition at 0.1 µM [%],Structure (SMILES)
1,17,"COC(=O)COc1ccc(Oc2ncnc3cc(OC)c(OC)cc23)cc1 [Example 774, Methyl 2-{4-[(6,7-dimethoxy-4-quinazolinyl)oxy]phenoxy}acetate]"
2,22,"COc1cc2ncnc(Oc3ccc(OCC(=O)O)cc3)c2cc1OC [Example 775, 2-{4-[(6,7-Dimethoxy-4-quinazolinyl)oxy]phenoxy}acetic acid]"

# Reference: patent US7135466B2 (Kirin Beer Kabushiki Kaisha, priority 1999, dated 2006)
